“Also recorded” adds a separate entry of the source.
Legend:
[1] = Mouse pharmacokinetics after oral dosing; format: in vivo, mice; conditions: for adverse reactions in plasma exposure study: single and repeat dosing; for plasma levels reached after single oral dose: uninfected mice
P. berghei = P. berghei mouse in vivo efficacy testing; parameters: species or system Plasmodium berghei in mice; conditions: for ill effects from compound administration: oral 100 mg/kg/dose every 4 h × 10, then every 6 h × 6; for impact on parasite blood levels in P. berghei mouse model: oral 100 mg/kg/dose every 4 hours × 10 doses, then every 6 hours × 6 doses
Pf 3D7 cells = conditions: read-out: EC50 against P. falciparum in whole cell assays; cited from earlier work
in vitro = conditions: human, microsomes
PbDHODH = PbDHODH (Plasmodium berghei, UniProt A0A509AEH5); test: PbDHODH steady-state inhibition assay; format: biochemical; conditions: PbDHODH vs PfDHODH
[2] = In vitro human microsomal metabolism; conditions: for Predicted EH (hepatic extraction ratio): estimated from measured rate of degradation in vitro; for Predicted EH (hepatic extraction ratio) / microsomal CLint at 1 µM: human; for microsomal CLint at 1 µM: pooled human liver microsomes; for Putative metabolites: human liver microsomes, LC/MS
PfDHODH = PfDHODH (Plasmodium falciparum, UniProt Q08210); conditions: unsubstituted phenyl; cited from earlier work
Chain of PfDHODH (Q08210 158-569): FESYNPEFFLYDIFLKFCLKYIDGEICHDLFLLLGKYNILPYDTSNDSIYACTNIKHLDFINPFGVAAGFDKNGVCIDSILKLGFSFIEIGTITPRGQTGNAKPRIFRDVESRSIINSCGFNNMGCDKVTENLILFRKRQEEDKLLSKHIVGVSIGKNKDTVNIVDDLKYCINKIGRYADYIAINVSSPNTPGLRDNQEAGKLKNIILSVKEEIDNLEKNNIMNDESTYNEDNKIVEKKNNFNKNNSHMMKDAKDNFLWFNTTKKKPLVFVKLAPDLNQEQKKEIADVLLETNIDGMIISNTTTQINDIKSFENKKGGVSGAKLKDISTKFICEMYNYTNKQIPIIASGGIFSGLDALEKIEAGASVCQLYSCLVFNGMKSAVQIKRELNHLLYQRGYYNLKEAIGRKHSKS

Cc1cc(Nc2ccc3ccccc3c2)n2ncnc2n1 [Compound 2, (5-methyl-[1,2,4]triazolo[1,5-a]pyrimidin-7-yl)-naphthalen-2-yl-amine]
plasma levels at 240 min on day 4 of repeat dosing ([1]; mice, 50 mg/kg oral 1x daily repeat dosing): nearly undetectable
adverse reactions in plasma exposure study ([1]; mice, 50 mg/kg oral): No adverse reactions
plasma levels reached after single oral dose ([1]; 50 mg/kg oral single dose): 2000 to 3000 nM
ill effects from compound administration (P. berghei; infected mice): no major ill effects
impact on parasite blood levels in P. berghei mouse model (P. berghei; 100 mg/kg): no activity; also recorded: neither compound had any impact
EC50 (Pf 3D7 cells): 80 nM
microsomal CLint (in vitro): 96 µL/min/mg

Cc1cc(Nc2ccc3cc4ccccc4cc3c2)n2ncnc2n1 [Compound 3, (5-Methyl-[1,2,4]triazolo[1,5-a]pyrimidin-7-yl)-anthracen-2-yl-amine]
IC50 fold higher for PbDHODH than for PfDHODH (PbDHODH): 66 fold
plasma concentrations after last dose of repeat dosing relative to single dose ([1]; mice, 50 mg/kg oral for 2 to 4 days): significantly reduced
plasma concentrations maintained over 240 min ([1]; mice, 50 mg/kg oral single dose): 1000 to 3000 nM
observed plasma levels ([1]; mice, 50 mg/kg oral, repeat dosing): ~ 1 µM
adverse reactions in plasma exposure study ([1]; mice, 50 mg/kg oral): No adverse reactions
plasma levels reached after single oral dose ([1]; 50 mg/kg oral single dose): 2000 to 3000 nM
ill effects from compound administration (P. berghei; infected mice): no major ill effects
impact on parasite blood levels in P. berghei mouse model (P. berghei): neither compound had any impact
Predicted EH (hepatic extraction ratio) [2]: 0.70
microsomal CLint at 1 µM [2]: 37 µL/min/mg

Cc1cc(Nc2ccccc2)n2ncnc2n1 [Compound 4]
activity (in words) (PfDHODH): completely inactive

Cc1cc(Nc2cccc(F)c2)n2ncnc2n1 [Compound 13, (3-Fluoro-phenyl)-(5-methyl-[1,2,4]triazolo[1,5-a]pyrimidin-7-yl)-amine]
Predicted EH (hepatic extraction ratio) [2]: 0.50
microsomal CLint at 1 µM [2]: 18 µL/min/mg

Cc1cc(Nc2cccc(Cl)c2)n2ncnc2n1 [Compound 14, (3-Chloro-phenyl)-(5-methyl-[1,2,4]triazolo[1,5-a]pyrimidin-7-yl)-amine]
microsomal CLint (in vitro): 38 µL/min/mg

Cc1cc(Nc2cccc(C(F)(F)F)c2)n2ncnc2n1 [Compound 16, (5-Methyl-[1,2,4]triazolo[1,5-a]pyrimidin-7-yl)-(3-trifluoromethyl-phenyl)-amine]
Predicted EH (hepatic extraction ratio) [2]: 0.62
microsomal CLint at 1 µM [2]: 29 µL/min/mg

Cc1cc(Nc2ccc(C(F)(F)F)cc2)n2ncnc2n1 [Compound 21, (5-Methyl-[1,2,4]triazolo[1,5-a]pyrimidin-7-yl)-(4-trifluoromethyl-phenyl)-amine]
time plasma concentrations maintained above 1 µM (0.29 µg/mL) ([1]; mice, single oral dose 50 mg/kg): 16 h
adverse reactions after oral administration ([1]; mice, single oral dose 20 or 50 mg/kg): No adverse reactions
adverse reactions in efficacy study (P. berghei; infected mice, 50 mg/kg oral q.d. or b.i.d. for 4 days): No adverse reactions
microsomal CLint (in vitro): 7.5 µL/min/mg

Cc1cc(Nc2ccc(F)c(C)c2)n2ncnc2n1 [Compound 40, (4-Fluoro-3-methyl-phenyl)-(5-methyl-[1,2,4]triazolo[1,5-a]pyrimidin-7-yl)-amine]
Predicted EH (hepatic extraction ratio) [2]: 0.64
microsomal CLint at 1 µM [2]: 31 µL/min/mg

Cc1cc(Nc2ccc(Cl)c(C(F)(F)F)c2)n2ncnc2n1 [Compound 41, (4-Chloro-3-trifluoromethyl-phenyl)-(5-methyl-[1,2,4]triazolo[1,5-a]pyrimidin-7-yl)-amine]
Predicted EH (hepatic extraction ratio) [2]: 0.42
microsomal CLint at 1 µM [2]: 13 µL/min/mg

Cc1cc(Nc2ccc(Br)c(C(F)(F)F)c2)n2ncnc2n1 [Compound 42, (4-Bromo-3-trifluoromethyl-phenyl)-(5-methyl-[1,2,4]triazolo[1,5-a]pyrimidin-7-yl)-amine]
Predicted EH (hepatic extraction ratio) [2]: 0.43
microsomal CLint at 1 µM [2]: 14 µL/min/mg

Cc1cc(Nc2ccc(C#N)c(C(F)(F)F)c2)n2ncnc2n1 [Compound 45, 4-(5-Methyl-[1,2,4]triazolo[1,5-a]pyrimidin-7-ylamino)-2-trifluoromethyl-benzonitrile]
Putative metabolites [2]: no metabolites were detected; also recorded: None detected

Cc1cc(Nc2ccc(C(F)(F)F)c(F)c2)n2ncnc2n1 [Compound 47, (3-Fluoro-4-trifluoromethyl-phenyl)-(5-methyl-[1,2,4]triazolo[1,5-a]pyrimidin-7-yl)-amine]
Putative metabolites [2]: no metabolites were detected; also recorded: None detected

— publication PMC2746568 (Journal of medicinal chemistry, 2009)
